Patent US20190292167A1, “HETEROAROMATIC COMPOUNDS USEFUL FOR THE TREATMENT OF PROLIFERATIVE DISEASES” (Syros Pharmaceuticals, Inc., priority 2013, published 2019)
pIC50: −log10 of the molar value. Where a name gives a salt, the structure may show the parent alone.

Tests used:
MCF-10A = test: Inhibition of cell proliferation, CellTiter-Glo, 72 hour; type: cell-based; details: Homo sapiens, Breast Cancer/Breast cell line, read-out: Inhibition of Proliferation MCF10A
RS4-11 = test: as above; type: cell-based; details: Homo sapiens, Blood cancer cell line
MV4-11 = test: as above; type: cell-based; details: Homo sapiens, Blood cancer cell line
T47D = test: as above; type: cell-based; details: Homo sapiens, Breast Cancer/Breast cell line
SKBR-3 = test: as above; type: cell-based; details: Homo sapiens, SK-BR-3, Breast Cancer/Breast cell line, read-out: Inhibition of Proliferation SKBR3
MNNG-Hos Cl#5 = test: as above; type: cell-based; details: Osteosarcoma cell line
143B = test: as above; type: cell-based; details: Homo sapiens, Osteosarcoma cell line
MDA-MB231 = test: as above; type: cell-based; details: Homo sapiens, MDA-MB-231, Breast Cancer/Breast cell line
SAOS = test: as above; type: cell-based; details: Osteosarcoma cell line
MCF-7 = test: as above; type: cell-based; details: Homo sapiens, MCF7, Breast Cancer/Breast cell line
CDK7 = biological target: T1, CDK7 (Homo sapiens, UniProt P50613); test: Adapta kinase assay (Life Technologies) against CDK7, co-factors cyclin H and MNAT1; type: biochemical; details: read-out: CDK7 Inhibition
T1 construct: purchased Life Technologies (Adapta kinase assay service)
T1 sequence (P50613 whole entry): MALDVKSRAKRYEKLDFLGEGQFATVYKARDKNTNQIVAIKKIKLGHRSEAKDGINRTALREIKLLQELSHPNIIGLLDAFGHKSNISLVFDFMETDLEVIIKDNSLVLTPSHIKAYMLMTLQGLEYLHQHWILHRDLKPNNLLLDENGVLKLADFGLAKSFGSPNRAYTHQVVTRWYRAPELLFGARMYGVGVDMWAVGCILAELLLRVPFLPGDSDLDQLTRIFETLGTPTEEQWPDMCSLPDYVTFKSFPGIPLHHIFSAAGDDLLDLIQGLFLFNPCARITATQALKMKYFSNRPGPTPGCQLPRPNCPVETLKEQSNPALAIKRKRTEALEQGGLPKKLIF
T1 sequence (P51946 whole entry partner): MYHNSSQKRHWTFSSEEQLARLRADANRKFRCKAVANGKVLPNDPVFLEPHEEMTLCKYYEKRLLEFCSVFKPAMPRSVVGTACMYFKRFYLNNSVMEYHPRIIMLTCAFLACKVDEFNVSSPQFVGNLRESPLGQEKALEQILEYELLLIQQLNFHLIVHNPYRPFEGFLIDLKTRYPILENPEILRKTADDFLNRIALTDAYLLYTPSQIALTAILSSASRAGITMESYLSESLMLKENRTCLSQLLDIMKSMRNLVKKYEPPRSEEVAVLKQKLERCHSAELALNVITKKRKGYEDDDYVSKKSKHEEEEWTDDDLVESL
T1 sequence (P51948 whole entry partner): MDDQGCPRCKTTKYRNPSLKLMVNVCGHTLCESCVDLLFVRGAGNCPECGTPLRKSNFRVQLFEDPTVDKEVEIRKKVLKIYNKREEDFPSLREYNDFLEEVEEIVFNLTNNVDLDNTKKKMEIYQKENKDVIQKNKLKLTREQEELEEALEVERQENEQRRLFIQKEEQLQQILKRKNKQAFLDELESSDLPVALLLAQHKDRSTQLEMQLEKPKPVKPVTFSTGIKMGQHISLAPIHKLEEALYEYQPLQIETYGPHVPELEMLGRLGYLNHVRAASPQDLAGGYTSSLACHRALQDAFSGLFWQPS

hTERT-HME1 = test: Inhibition of cell proliferation, CellTiter-Glo, 72 hour; type: cell-based; details: Breast Cancer/Breast cell line
HL-60 = test: as above; type: cell-based; details: Homo sapiens, Blood cancer cell line, read-out: Inhibition of Proliferation HL60
Jurkat = test: as above; type: cell-based; details: Homo sapiens, Jurkat, 72 h, Blood cancer cell line; 72 hour; read-out: Inhibition of Proliferation of Jurkat Cells
Method: The following cancer cell lines were tested with the media conditions indicated: […]

SKES-1 = test: as above; type: cell-based; details: Homo sapiens, SK-ES1, Ewing's Sarcoma cell line, read-out: Inhibition of Proliferation SK-ES
Method: (§1) • Hs863T—DMEM (4 mM L-Glut, 4.5 g/L Glucose, 1 mM pyruvate, 1.5 g/l bicarb)+10% FBS • Hs822T—DMEM (4 mM L-Glut, 4.5 g/L Glucose, 1 mM pyruvate, 1.5 g/l bicarb)+10% FBS • A673—DMEM (4 mM L-Glut, 4.5 g/L Glucose, 1 mM pyruvate, 1.5 g/l bicarb)+10% FBS • SKES-1—McCoy's 5a Medium Modified (modified—1.5 mM L-glut, 2.2 g/L bicarb)+15% FBS • RD-ES—RPMI 1640+15% FBS.

Hs863T = test: as above; type: cell-based; details: Ewing's Sarcoma cell line
Method: as §1

A673 = test: as above; type: cell-based; details: Homo sapiens, Ewing's Sarcoma cell line
Method: as §1

Hs822T = test: as above; type: cell-based; details: Ewing's Sarcoma cell line
Method: as §1

RD-ES = test: as above; type: cell-based; details: Ewing's Sarcoma cell line
Method: as §1

THP-1 = test: as above; type: cell-based; details: Homo sapiens, Blood cancer cell line

Structure (SMILES) | pIC50 (MCF-10A) | pIC50 (RS4-11) | pIC50 (MV4-11) | pIC50 (T47D) | pIC50 (SKBR-3) | pIC50 (MNNG-Hos Cl#5) | pIC50 (143B) | pIC50 (MDA-MB231) | pIC50 (SAOS) | pIC50 (MCF-7) | pIC50 (CDK7) | pIC50 (hTERT-HME1) | pIC50 (HL-60) | pIC50 (Jurkat) | pIC50 (SKES-1) | pIC50 (Hs863T) | pIC50 (A673) | pIC50 (Hs822T) | pIC50 (RD-ES) | pIC50 (THP-1)
CN(C)C/C=C/C(=O)Nc1ccc(C(=O)N2CCC(Nc3ncc(Cl)c(-c4c[nH]c5ccccc45)n3)CC2)cc1 [Compound 100, (E)-N-(4-(4-(5-chloro-4-(1H-indol-3-yl)pyrimidin-2-ylamino)piperidine-1-carbonyl)phenyl)-4-(dimethylamino)but-2-enamide] | > 6.30 | > 6.30 | > 6.30 | < 5.30 | < 5.30 | 5.30 to 6.30 | < 5.30 | > 6.30 | > 6.30 | > 6.30 | > 7.00 | > 6.30 | > 6.30 | > 6.30 | > 6.30 | < 5.30 | > 6.30 | 5.30 to 6.30 | > 6.30 | > 6.30
CN(C)C/C=C/C(=O)Nc1ccc(C(=O)N2CC[C@@H](Nc3ncc(Cl)c(-c4c[nH]c5ccccc45)n3)C2)cc1 [Compound 104, (E)-N-(4-((R)-3-(5-chloro-4-(1H-indol-3-yl)pyrimidin-2-ylamino)pyrrolidine-1-carbonyl)phenyl)-4-(dimethylamino)but-2-enamide.TFA] | > 6.30 | > 6.30 | > 6.30 | < 5.30 | < 5.30 | < 5.30 | < 5.30 | > 6.30 | > 6.30 | 5.30 to 6.30 | > 7.00 | > 6.30 | > 6.30 | > 6.30 | > 6.30 | < 5.30 | > 6.30 | 5.30 to 6.30 | > 6.30 | > 6.30
CN(C)C/C=C/C(=O)Nc1ccc(C(=O)N2CCC(Nc3ncc(C#N)c(-c4c[nH]c5ccccc45)n3)CC2)cc1 [Compound 102, (E)-N-(4-(4-(5-cyano-4-(1H-indol-3-yl)pyrimidin-2-ylamino)piperidine-1-carbonyl)phenyl)-4-(dimethylamino)but-2-enamide] | > 6.30 | > 6.30 | > 6.30 | < 5.30 | < 5.30 | < 5.30 | < 5.30 | > 6.30 | > 6.30 | > 6.30 | > 7.00 | > 6.30 | > 6.30 | > 6.30 | > 6.30 | < 5.30 | > 6.30 | 5.30 to 6.30 | > 6.30 | > 6.30
